Source: paper PMC6318801 (European journal of medicinal chemistry, 2018)
Structures can show the parent of a compound that is named as a salt. Where two headings read alike, the source gives them in different places.

Legend:
[1] = Impact of human serum protein binding on inhibitory activity; type: cell-based; settings: Figure S4
[2] = biological target: human IDO1 expressed endogenously in HeLa cells (Homo sapiens, UniProt P14902); assay: Cell-based IDO1 inhibition assay
[3] = biological target: T1, mouse IDO2 expressed exogenously in T-Rex cells (Mus musculus, UniProt Q8R0V5); assay: Cell-based IDO2 inhibition assay; settings: for Greater potency for IDO1 and TDO over IDO2 (cell-based): cell-based IC50 ratio
T1 sequence (Q8R0V5 1-405): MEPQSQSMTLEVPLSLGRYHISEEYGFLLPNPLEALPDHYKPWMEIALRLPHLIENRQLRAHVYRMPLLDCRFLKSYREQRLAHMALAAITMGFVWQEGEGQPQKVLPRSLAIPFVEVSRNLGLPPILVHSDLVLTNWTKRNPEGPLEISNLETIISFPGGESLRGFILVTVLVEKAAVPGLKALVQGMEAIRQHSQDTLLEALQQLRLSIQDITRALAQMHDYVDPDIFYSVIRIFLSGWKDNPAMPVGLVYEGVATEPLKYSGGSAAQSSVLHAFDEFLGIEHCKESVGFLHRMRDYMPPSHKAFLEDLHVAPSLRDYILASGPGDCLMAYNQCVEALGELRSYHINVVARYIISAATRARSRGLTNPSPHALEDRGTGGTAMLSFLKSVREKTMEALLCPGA

[4] = biological target: IDO2 (Homo sapiens, UniProt Q6ZQW0); assay: Enzyme-based IDO2 inhibition assay
[5] = biological target: IDO1 (Homo sapiens, UniProt P14902); assay: Enzyme-based IDO1 inhibition assay; settings: for IDO1 % inhibition: isolated enzyme, 100 μM inhibitor
[6] = biological target: TDO (Homo sapiens, UniProt P48775); assay: Enzyme-based TDO inhibition assay
[7] = biological target: human TDO expressed exogenously in T-Rex cells (Homo sapiens, UniProt P48775); assay: Cell-based TDO inhibition assay
[8] = read-out: IDO2 IC50 (cell-based), mouse IDO2 in T-Rex cells, racemic mixtures
[9] = isolated enzyme, 100 μM inhibitor
[10] = read-out: IDO1 IC50 (cell-based), HeLa cells, racemic mixtures
[11] = read-out: TDO IC50 (cell-based), human TDO in T-Rex cells, racemic mixtures

human TDO expressed exogenously in T-Rex cells, sequence (P48775 whole entry): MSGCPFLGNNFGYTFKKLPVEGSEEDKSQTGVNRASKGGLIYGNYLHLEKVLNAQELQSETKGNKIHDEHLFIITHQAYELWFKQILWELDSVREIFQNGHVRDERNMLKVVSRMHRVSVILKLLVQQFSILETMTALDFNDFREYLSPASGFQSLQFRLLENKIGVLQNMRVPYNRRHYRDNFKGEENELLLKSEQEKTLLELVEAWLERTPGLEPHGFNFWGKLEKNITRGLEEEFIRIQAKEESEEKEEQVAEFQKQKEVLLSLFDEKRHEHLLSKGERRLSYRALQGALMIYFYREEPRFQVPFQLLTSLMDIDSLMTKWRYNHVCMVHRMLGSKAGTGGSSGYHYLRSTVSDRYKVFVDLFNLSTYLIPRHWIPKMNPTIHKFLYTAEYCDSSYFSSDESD
TDO, sequence (P48775 whole entry, species assumed): as the sequence (P48775 whole entry) above
human IDO1 expressed endogenously in HeLa cells, sequence (P14902 whole entry): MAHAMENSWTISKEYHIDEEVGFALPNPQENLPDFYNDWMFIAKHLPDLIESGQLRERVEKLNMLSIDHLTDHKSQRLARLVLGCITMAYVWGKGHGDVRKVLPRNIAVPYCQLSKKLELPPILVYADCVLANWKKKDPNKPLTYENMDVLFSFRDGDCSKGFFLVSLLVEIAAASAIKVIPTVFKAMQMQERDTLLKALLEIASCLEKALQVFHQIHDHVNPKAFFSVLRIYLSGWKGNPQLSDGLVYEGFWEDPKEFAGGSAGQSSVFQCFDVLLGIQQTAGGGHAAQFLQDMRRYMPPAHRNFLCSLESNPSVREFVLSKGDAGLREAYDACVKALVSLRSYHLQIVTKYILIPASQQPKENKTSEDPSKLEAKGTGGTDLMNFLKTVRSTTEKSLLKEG
IDO1, sequence (P14902 whole entry, species assumed): as the sequence (P14902 whole entry) above
IDO2, sequence (Q6ZQW0 whole entry): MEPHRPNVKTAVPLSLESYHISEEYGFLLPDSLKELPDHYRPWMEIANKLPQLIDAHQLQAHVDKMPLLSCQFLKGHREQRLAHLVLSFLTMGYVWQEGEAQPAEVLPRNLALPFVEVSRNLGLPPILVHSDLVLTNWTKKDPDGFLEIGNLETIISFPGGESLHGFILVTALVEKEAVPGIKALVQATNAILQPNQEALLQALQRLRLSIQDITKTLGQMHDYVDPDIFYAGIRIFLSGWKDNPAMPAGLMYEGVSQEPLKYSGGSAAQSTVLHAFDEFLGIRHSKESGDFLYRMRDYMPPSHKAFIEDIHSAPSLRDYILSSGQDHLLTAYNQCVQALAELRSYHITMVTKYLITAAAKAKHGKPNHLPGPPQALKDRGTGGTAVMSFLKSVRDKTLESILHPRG

Q: Which “Effect of human serum protein binding on inhibitory activity” value [1] does the source give for `Cl.NOC(c1ccccc1)c1cc(Cl)cc(Cl)c1` (stereo not drawn) [Compound 2, O-(3,5-Dichloro-α-phenylbenzyl)hydroxylamine hydrochloride] here?
A: The value was “relatively unaffected”.

Q: For `Cl.NOC(CCCC(=O)Nc1ccccc1)c1cccc(Cl)c1` (centres unmarked) [Compound 5, 5-(Aminooxy)-5-(3-chlorophenyl)-N-phenylpentanamide hydrochlorie], which “Selectivity for IDO1 over IDO2 and TDO (cell-based)” value ([2]; cell-based IC50 ratio) is on record?
A: Its value is “more than 20 fold”.

Q: For `Cl.NOC(c1ccccc1)c1ccc(Cl)cc1Cl` (centres unmarked) [Compound 6, O-(2,4-Dichlorophenylbenzyl)hydroxylamine hydrochloride], which “Effect of human serum protein binding on inhibitory activity” value [1] is on record?
A: Its value is “substantial reduction in inhibitory activity”.

Q: Which “Greater potency for IDO1 and TDO over IDO2 (cell-based)” value [3] does the source give for `Cl.NOC(c1ccccc1)c1ccccc1F` (stereo not drawn) [Compound 16, O-(2-Fluoro-α-phenylbenzyl)hydroxylamine hydrochloride] here?
A: The value was “roughly 10 fold”.

Q: Which IC50 [3] does the source give for `NOC(CCc1ccccc1)c1ccccc1` (centres unmarked) [Compound 17, O-(1,3-diphenylpropyl)hydroxylamine hydrochloride] here?
A: Its IC50 is 19.3 µM.

Q: And the inhibition at 100 µM ([4]; read-out: IDO2 % inhibition)?
A: Its inhibition at 100 µM is 76%.

Q: What about the IC50 [2] of the same compound?
A: The IC50 was 14.7 µM.

Q: What about the IC50 [5] of the same compound?
A: The IC50 was 16 µM.

Q: And the inhibition at 100 µM ([6]; read-out: TDO % inhibition)?
A: Its inhibition at 100 µM is 89.9%.

Q: And the IC50 [7]?
A: The IC50 was 49.7 µM.

Q: With `Cl.NOC(c1ccccc1)c1ccsc1` (centres unmarked) [Compound 21, O-(phenyl(thiophen-3-yl)methyl)hydroxylamine hydrochloride] as the compound, how does the “Greater potency for IDO1 and TDO over IDO2 (cell-based)” value [3] read?
A: Its value is “roughly 10 fold”.

Q: Which inhibition at 200 µM ([5]; read-out: IDO1 % inhibition, isolated enzyme, 200 μM inhibitor) does the source give for `NOC(c1ccccc1)c1ccc(O)cc1` (stereo not drawn) [Compound 25, O-(4-Hydroxy-α-phenyl)-benzyl hydroxylamine hydrochloride] here?
A: Its inhibition at 200 µM is 18%.

Q: Which results are given for “O-(2-Methoxy-α-phenylbenzyl)hydroxylamine hydrochloride [Compound 20]”?
A: IC50 [3, 8]: 16.5 µM; IDO2 % inhibition [4, 9]: 80.0%; IC50 [2, 10]: 1.11 µM; IC50 [7, 11]: 48.8 µM

Q: What does the source list for “O-(3-Trifluoromethyl-α-phenylbenzyl)hydroxylamine hydrochloride [Compound 26]”?
A: IC50 [3, 8]: 24.7 µM; IC50 [2, 10]: 1.73 µM; IDO1 % inhibition [5]: 18%; IC50 ([6]; read-out: TDO IC50, isolated enzyme, racemic mixtures): 12 µM; IC50 [7, 11]: 13.6 µM

Q: Which IC50 [3, 8] does the source give for “O-[4-Chloro-α-(2’-methyl,4’-methoxyphenyl)benzenemethyl]hydroxylamine hydrochloride [Compound 23]” here?
A: The IC50 was 8.77 µM.

Q: What about the IC50 [2, 10] of the same compound?
A: Its IC50 is 1.76 µM.

Q: What about the IDO1 % inhibition [5] of the same compound?
A: Its IDO1 % inhibition is 85%.

Q: What about the TDO % inhibition [6, 9] of the same compound?
A: The TDO % inhibition was 66%.

Q: What about the IC50 [7, 11] of the same compound?
A: The IC50 was 19.1 µM.
